Measurements taken from US20250144067A1, “PERSONALIZED STARVATION THERAPY FOR CANCER” (Faeth Therapeutics, Inc., priority 2021, published 2025).
Where a name gives a salt, the structure may show the parent alone. Read-outs that look alike come from different tables or passages of the source.

Legend:
[1] = system: NCI-H292 lung cancer cells; test: FDA drug screening, complete media vs cholesterol-free media with simvastatin (TABLE 2); assay type: cell-based, human
[2] = system: NCI-H292 lung cancer cells; test: FDA drug screening, complete media vs cholesterol-free media without statin (TABLE 1); assay type: cell-based, human
[3] = NCI-H292 cells, FDA library drug in cholesterol-free media with simvastatin 0.04 μM
[4] = NCI-H292 cells, FDA library drug in complete media
[5] = complete media vs cholesterol-free media + simvastatin (0.04 μM), >0 enhanced anti-cancer activity, about 0 neutral, <0 antagonist
[6] = Complete minus Cholesterol-free, greater than 0 enhanced anti-cancer activity, about 0 neutral, below 0 antagonist
[7] = NCI-H292 cells, FDA drug library screen, cholesterol-free media without statin
[8] = NCI-H292 cells, FDA drug library screen, complete media
[9] = NCI-H292 cells, drug in cholesterol-free media with simvastatin 0.04 μM
[10] = NCI-H292 cells, drug in complete media
[11] = Complete minus Cholesterol-free, >0 enhanced anti-cancer activity, about 0 neutral, <0 antagonist
[12] = NCI-H292 cells, cholesterol-free media without statin
[13] = NCI-H292 cells, FDA drug library screen, cholesterol-free media with simvastatin 0.04 μM
[14] = complete media minus cholesterol-free media + simvastatin, >0 enhanced anti-cancer activity, about 0 neutral, <0 antagonist
[15] = NCI-H292 cells, cholesterol-free media without statin, FDA drug library screen
[16] = NCI-H292 cells, complete media, FDA drug library screen
[17] = complete vs cholesterol-free media, >0 enhanced anti-cancer activity, about 0 neutral, <0 antagonist

## OCC(CO)N[C@H]1C[C@](O)(CO)[C@@H](O)[C@H](O)[C@H]1O [Voglibose]
[1]
  Cholesterol-free media + simvastatin (0.04 μM): 0.9097
  Complete Media: 0.6837
  Difference: −0.23
[2]
  Cholesterol-free: 1.147
  Complete: 1.027
  Difference: −0.12

## COc1ccc(CN2CCN(C(c3ccc(F)cc3)c3ccc(F)cc3)CC2)c(OC)c1OC [Lomerizine dihydrochloride]
[1]; [3]
  Cholesterol-free media + simvastatin (0.04 μM): 1.178
[1]; [4]
  Complete Media: 0.8678
[1]; [5]
  Difference: −0.31
[2]; [6]
  Difference: −0.12
[2]; [7]
  Cholesterol-free: 1.023
[2]; [8]
  Complete: 0.8999

## COc1cc(C)c(/C=C/C(C)=C/C=C/C(C)=C/C(=O)O)c(C)c1C [Acitretin]
[1]; NCI-H292 cells, cholesterol-free media with simvastatin 0.04 μM, […]
  Cholesterol-free media + simvastatin (0.04 μM): 0.7241
[1]; NCI-H292 cells, complete media, […]
  Complete Media: 0.76
[1]; complete media minus cholesterol-free media + simvastatin, […]
  Difference: 0.04
[2]; Complete minus Cholesterol-free, […]
  Difference: −0.08
[2]; [7]
  Cholesterol-free: 0.8064
[2]; [8]
  Complete: 0.7285

## CC(c1cc2ccccc2s1)N(O)C(N)=O (centres unmarked) [Zileuton]
[1]; [9]
  Cholesterol-free media + simvastatin (0.04 μM): 1.302
[1]; [10]
  Complete Media: 1.066
[1]; [5]
  Difference: −0.24
[2]; [11]
  Difference: −0.21
[2]; [12]
  Cholesterol-free: 1.451
[2]; NCI-H292 cells, complete media
  Complete: 1.238

## Sertaconazole (nitrate)
[1]; [13]
  Cholesterol-free media + simvastatin (0.04 μM): 0.3702
[1]; [8]
  Complete Media: 0.8436
[1]; [14]
  Difference: 0.47
[2]; [15]
  Cholesterol-free: 0.6893
[2]; [16]
  Complete: 0.8595
[2]; [17]
  Difference: 0.17

## CC(S)C(=O)NCC(=O)O (centres unmarked) [Tiopronin]
[1]; NCI-H292 cells, cholesterol-free media with simvastatin 0.04 μM, cell growth value in FDA drug screen
  Cholesterol-free media + simvastatin (0.04 μM): 1.026
[1]; [14]
  Difference: 0.12
[2]; [11]
  Difference: −0.20
[2]; [12]
  Cholesterol-free: 0.9241
[2]; NCI-H292 cells, complete media
  Complete: 0.7208

## CC(CCc1ccccc1)NC(C)C(O)c1ccc(O)cc1 (centres unmarked) [Nylidrin (hydrochloride)]
[1]; [13]
  Cholesterol-free media + simvastatin (0.04 μM): 0.6926
[1]; [8]
  Complete Media: 0.8576
[1]; [14]
  Difference: 0.17
[2]; Complete minus Cholesterol-free, greater than 0 enhanced anti-cancer activity, about 0 neutral, below 0 antagonists
  Difference: −0.53
[2]; NCI-H292 cells in cholesterol-free media without statin
  Cholesterol-free: 1.455
[2]; NCI-H292 cells in complete media
  Complete: 0.9273

## COc1ccc(CN(CCN(C)C)c2ccccn2)cc1 [Mepyramine maleate]
[1]; [3]
  Cholesterol-free media + simvastatin (0.04 μM): 1.226
[1]; [4]
  Complete Media: 0.8399
[1]; [5]
  Difference: −0.39
[2]; [6]
  Difference: −0.17
[2]; [7]
  Cholesterol-free: 1.527
[2]; [8]
  Complete: 1.356

## O=C1c2c(O)ccc(O)c2C(=O)c2c(NCCNCCO)ccc(NCCNCCO)c21 [Mitoxantrone]
[1]; NCI-H292 cells, cholesterol-free media with simvastatin 0.04 μM, FDA drug library screen (TABLE 2)
  Cholesterol-free media + simvastatin (0.04 μM): 0.04539
[1]; NCI-H292 cells, complete media, FDA drug library screen (TABLE 2)
  Complete Media: −0.01641
[1]; complete media minus cholesterol-free media + simvastatin (0.04 μM), >0 enhanced anti-cancer activity, about 0 neutral, <0 antagonist
  Difference: −0.06
[2]; [11]
  Difference: −0.04
[2]; [15]
  Cholesterol-free: 0.007289
[2]; [16]
  Complete: −0.03159

## CC(C)(CO)[C@H](O)C(=O)NCCC(=O)O.[Na] [D-Pantothenic acid (sodium)]
[1]; [9]
  Cholesterol-free media + simvastatin (0.04 μM): 1.102
[1]; [10]
  Complete Media: 0.858
[1]; [5]
  Difference: −0.24
[2]; [11]
  Difference: −0.03
[2]; [15]
  Cholesterol-free: 1.02
[2]; [16]
  Complete: 0.9879

## NC(=O)N1c2ccccc2CC(=O)c2ccccc21 [Oxcarbazepine]
[1]; [3]
  Cholesterol-free media + simvastatin (0.04 μM): 1.305
[1]; [4]
  Complete Media: 0.9097
[1]; [5]
  Difference: −0.40
[2]; [15]
  Cholesterol-free: 0.8341
[2]; [16]
  Complete: 1.538
[2]; [17]
  Difference: 0.70

## O=C1CCCC(=O)C1C(=O)c1ccc(C(F)(F)F)cc1[N+](=O)[O-] [Nitisinone]
[1]; [13]
  Cholesterol-free media + simvastatin (0.04 μM): 0.9427
[1]; [8]
  Complete Media: 1.188
[1]; [14]
  Difference: 0.25
[2]; [6]
  Difference: −0.08
[2]; [7]
  Cholesterol-free: 0.8746
[2]; [8]
  Complete: 0.7963

## Cc1noc(NS(=O)(=O)c2ccc(N)cc2)c1C [Sulfisoxazole]
[1]; [13]
  Cholesterol-free media + simvastatin (0.04 μM): 1.12
[1]; [8]
  Complete Media: 1.045
[1]; [5]
  Difference: −0.08
[2]; [12]
  Cholesterol-free: 1.273
[2]; NCI-H292 cells, complete media
  Complete: 0.8703
[2]; complete vs cholesterol-free media, greater than 0 enhanced anti-cancer activity, about 0 neutral, below 0 antagonists
  Difference: −0.40

## Cc1c(C)c2c(c(C)c1O)CCC(C)(CCCC(C)CCCC(C)CCCC(C)C)O2 (racemic) [DL-alpha-Tocopherol]
[1]; [13]
  Cholesterol-free media + simvastatin (0.04 μM): 1.155
[1]; [8]
  Complete Media: 1.072
[1]; [5]
  Difference: −0.08
[2]; [15]
  Cholesterol-free: 0.7949
[2]; [16]
  Complete: 1.459
[2]; [17]
  Difference: 0.66

## Cc1ncc(COP(=O)(O)O)c(C=O)c1O [Pyridoxal phosphate]
[1]; [9]
  Cholesterol-free media + simvastatin (0.04 μM): 1.11
[1]; [10]
  Complete Media: 0.9056
[1]; [5]
  Difference: −0.20
[2]; [15]
  Cholesterol-free: 1.045
[2]; [16]
  Complete: 1.512
[2]; [17]
  Difference: 0.47
